Patent publication US20240424152A1, “AGENTS, COMPOSITIONS, AND METHODS FOR CANCER DETECTION” (The Johns Hopkins University, priority 2021, published 2024)
Entries after “also recorded” stand apart in the source; their conditions may differ. No end group written: not given here. *: point of attachment. NOTA = O=C(O)CN1CCN(CC(=O)O)CCN(CC(=O)*)CC1

Columns and labels:
[1] = system: human triple negative breast cancer cell line, MDA-MB-231; assay: Cellular uptake of 18F-labeled peptide with blocking by unlabeled peptide; type: cell-based; conditions: MDA-MB-231 cells, 74 KBq 18F-labeled peptide, 37° C., blocking with 10-fold non-radioactive peptide; FIG. 1
Protocol: Prepared peptides were first analyzed in vitro using the human triple negative breast cancer cell line, MDA-MB-231. In brief, cells were detached using non-enzymatic buffer and 0.5 million cells per tube will be incubated with 74 KBq (2 μCi) of ^18F-labeled peptide in 100 μL phosphate-buffered saline (PBS) at 37° C. Experiments were done in triplicate and repeated three times to ensure reproducibility. Blocking was carried out using a 10-fold molar equivalence of the corresponding non-radioactive peptide analogue. The integrity of the radiolabeled compounds and their extent of decomposition was analyzed by RP-HPLC.

MDA-MB-231 tumors = assay: In vivo PET imaging in mice xenografted with MDA-MB-231 breast tumors; conditions: NOG mice, MDA-MB-231 xenograft, intravenous, 30 min post tracer injection; FIG. 2
Protocol: All animal studies were carried out per regulations set forth and approved by the Johns Hopkins Animal Care and Use Committee at the Johns Hopkins Molecular Imaging Service Center. Female, 6-8 weeks old, immunodeficient (NOG) mice were inoculated with MDA-MB-231 (2 million) cells in 100 μL of Hank's balanced salt solution in the top mammary fat pad. Tumors averaging 200-300 mm^3 (typically 14 days after inoculation) were used for in vivo imaging and ex vivo biodistribution studies.
For PET imaging, mice were intravenously injected with 9-10 MBq (240-270 μCi) of the radiolabeled peptide in 200 μL of saline. Whole body PET imaging (2 beds; 15 min per bed) was carried out using a SEDCAL SuperArgus small animal PET/CT scanner 30 min post tracer injection. Following PET image acquisition, a CT scan (512 projections) was obtained on the same system for anatomical co-registration. PET data were reconstructed using the 3-dimensional ordered-subsets expectation maximization (3D-OSEM) algorithm and corrected for dead time and radioactive decay. Final data visualization and image generation was carried out using the Amira (FEI) software. Quantitative in vivo image analysis was done in AMIDE 1.0.5 (SourceForge) using ellipsoid region-of-interest volume integrations. Percentage of injected dose per cubic centimeter of tissue (% ID/cc) was calculated based on an external calibration factor obtained from a known quantity of radioactivity.

Substance	cellular uptake [1]	accumulation in breast tumors (PET) (MDA-MB-231 tumors)	tumor uptake on PET compared to Pep61 (MDA-MB-231 tumors)
A-D-K-P-D-M-G-E-I-A-S-F-D-K(NOTA) (ADKPDMGEIASFDK(NOTA); also: 18F label) [Pep62, tested 18F-labeled]	taken up by MDA-MB-231 cells in a specific manner	clear accumulation in breast tumors; also recorded: Accumulation and visualization of both peptides in breast tumors	higher and more uniform uptake compared to Pep61
A-D-K(NOTA)-P-D-M-G-E-I-A-S-F-D-K (ADK(NOTA)PDMGEIASFDK; also: 18F label) [Pep61, tested 18F-labeled]	taken up by MDA-MB-231 cells in a specific manner	clear accumulation in breast tumors; also recorded: Accumulation and visualization of both peptides in breast tumors	–
